What was measured:
Type in all cases: in vivo, mice
[1] = system: adenocarcinoma tumor resembling human breast tumor (the 755 tumor system); assay: combination chemotherapy with 6 MP, implanted 755 adenocarcinoma (Table 2); conditions: 6 MP 1.5 mg./kg. orally once daily, A 3.75 mg./kg. s.c. twice daily
Method: (§1) In a typical experiment, laboratory mice were infected by a subcutaneous implantation of a tumor tissue in the axillary region of the body. The implantations were accomplished by means of a trocar. Initial tumor size in each animal generally was about 2 square millimeters. Tumor size was then measured periodically as length and width in mm. Typical tumor systems implanted included adenocarcinoma 755, an Aly Fast strain of bronchiogenic carcinoma, and mecca lymphosarcoma. Oncolytic agents utilized in the tests to determine the potentiating effects of the compounds of the invention.include cytoxan, 5-fluorouracil, vindesine, methotrexate and 6-mercaptopurine. […] Ten infected animals normally were selected to receive a known oncolytic agent. Another ten infected animals were administered the known oncolytic agent in addition to a compound of this invention.
According to the test, 6 MP was administered alone to 10 mice orally at the dose of 1.5 mg./kg. once each day for twenty-eight days. Another group of ten mice received 6 MP daily (1.5 mg./kg.) plus the compound of this invention (A), which was administered subcutaneously at the rate of 3.75 mg./kg. twice daily for twenty-eight days. […] The average tumor size for the test group on the indicated day of measurement is reported in column I under each of the reported days of measurement. In column II of each of the reported days of measurement is recorded the number of surviving animals out of the particular test group.

755 adenocarcinoma [2] = assay: combination chemotherapy with 6-mercaptopurine, implanted 755 adenocarcinoma (Table 7); conditions: by day 29; 6 MP 4 mg./kg. i.p. once per day on days 5, 9, 13
Method: (§2) In a typical experiment, laboratory mice were infected by a subcutaneous implantation of a tumor tissue in the axillary region of the body. The implantations were accomplished by means of a trocar. Initial tumor size in each animal generally was about 2 square millimeters. Tumor size was then measured periodically as length and width in mm. Typical tumor systems implanted included adenocarcinoma 755, an Aly Fast strain of bronchiogenic carcinoma, and mecca lymphosarcoma. Oncolytic agents utilized in the tests to determine the potentiating effects of the compounds of the invention.include cytoxan, 5-fluorouracil, vindesine, methotrexate and 6-mercaptopurine. Twenty or thirty infected animals generally were selected as controls and received placebo. Ten infected animals normally were selected to receive a known oncolytic agent. Another ten infected animals were administered the known oncolytic agent in addition to a compound of this invention.
Mice were infected by implantation of a 755 adenocarcinoma. Thirty mice were held as controls and received only placebo. Ten mice were administered 4 mg./kg. of 6-mercaptopurine (6 MP) intraperitoneally once per day on the fifth, ninth and thirteenth days following implantation. […]

mecca- lymphosarcoma = assay: combination chemotherapy with 5 FU, implanted mecca lymphosarcoma (Table 3); conditions: 5 FU 4 mg./kg. i.p. once daily, A 18.75 mg./kg. s.c. twice daily
Method: as §2
A similar study was carried out to determine the synergistic effect of N-(2-phenyl-2-hydroxyethyl)-1,1-dimethyl-3-(4-hydroxyphenyl)-propylaminium bromide (compound A) on the antineoplastic activity of 5-fluorouracil (designated in Table 3 as 5 FU) in the treatment of a mecca- lymphosarcoma in mice. 5-Fluorouracil was administered intraperitoneally at the rate of 4 mg./kg. once each day to a group of five test animals. Another group of five infected animals received the combination of 4 mg./kg. of 5 FU given intraperitoneally once each day plus the potentiating agent (compound A) given subcutaneously twice each day at the dose of 18.75 mg./kg. A group of 20 infected animals received placebo. Measurements of average tumor size for each group of animals were made on the tenth, fourteenth and eighteenth day following initial tumor implantation and dosing. Column I under each of the reported days gives the average tumor size in square millimeters. Column II under each of the reported days gives the number of surviving animals out of each test group. […] Moreover, after eighteen days of treatment, three of the five animals receiving combination chemotherapy were still alive, whereas all of the control animals and those receiving 5-FU alone had died.

755 adenocarcinoma [3] = assay: combination chemotherapy with 5-fluorouracil, implanted 755 adenocarcinoma (Table 6); conditions: for number of tumor free animals out of those still living / average tumor size: 5 FU 8 mg./kg. i.p. days 5, 9, 13, B 7.5 mg./kg. s.c. twice daily days 5 through 14
Method: as §1
5-Fluorouracil is essentially ineffective against the 755 adenocarcinoma in mice. […] Mice were infected by an implantation of the 755 adenocarcinoma. Thirty animals were given placebo, ten were given 5-fluorouracil alone, and ten were given N-(2-phenyl-2-hydroxyethyl)-1,1-dimethyl-3-(4-aminocarbonylphenyl)propylaminium chloride in combination with 5-fluorouracil. Treatment in all cases was started five days after implantation of the tumor system. 5-Fluorouracil was administered intraperitoneally at the rate of 8 mg./kg. given once on days 5, 9 and 13 following implantation, both to the animals receiving 5-FU alone and the combination. The animals undergoing combination chemotherapy received, in addition to 5-FU, N-(2-phenyl-2-hydroxyethyl)-l,l-dimethyl-3-(4-aminocarbonylphenyl)propylaminium chloride (compound B) at the rate of 7.5 mg./kg. given subcutaneously twice daily on days 5 through 14 of the test. Column I under each of the days of measurement reports the average tumor size in square millimeters of each test group. Column II under each of the days of measurement is the number of tumor free animals out of those still living on that day.

`Sc1ncnc2nc[nH]c12` [6 MP, 6-mercaptopurine] was tested, and the “number of surviving animals out of test group” value (“number … of test group” for short) ([1]; Day 0) was 10/10, the average tumor size ([1]; Day 9) was 100 square millimeters and the “number … of test group” value ([1]; Day 9) was 9/10. The average tumor size ([1]; Day 17) was 340 square millimeters, the “number … of test group” value ([1]; Day 17) was 7/10 and the average tumor size ([1]; Day 23) was 680 square millimeters. The “number … of test group” value ([1]; Day 23) was 6/10, the average tumor size ([1]; Day 28) was 1050 square millimeters and the “number … of test group” value ([1]; Day 28) was 1/10. For the same molecule, the “animals that had died out of ten” value (755 adenocarcinoma [2]) was “All ten”.
With `O=c1[nH]cc(F)c(=O)[nH]1` [5 FU, 5-fluorouracil] the “number … of test group” value (mecca- lymphosarcoma; Day 0) was 5/5, the average tumor size (mecca- lymphosarcoma; Day 10) was 490 square millimeters and the “number … of test group” value (mecca- lymphosarcoma; Day 10) was 5/5. For the same molecule, the average tumor size (mecca- lymphosarcoma; Day 14) was 490 square millimeters, the “number … of test group” value (mecca- lymphosarcoma; Day 14) was 4/5 and the “number … of test group” value (mecca- lymphosarcoma; Day 18) was 0/5. For the same molecule, the “number of tumor free animals out of those still living” value (755 adenocarcinoma [3]; Day 0) was 0/10, the average tumor size (755 adenocarcinoma [3]; Day 5) was 95 square millimeters and the “number of tumor free animals out of those still living” value (755 adenocarcinoma [3]; Day 5) was 0/10. The average tumor size (755 adenocarcinoma [3]; Day 12) was 350 square millimeters, the “number of tumor free animals out of those still living” value (755 adenocarcinoma [3]; Day 12) was 0/10 and the average tumor size (755 adenocarcinoma [3]; Day 17) was 630 square millimeters. The “number of tumor free animals out of those still living” value (755 adenocarcinoma [3]; Day 17) was 0/9, the average tumor size (755 adenocarcinoma [3]; Day 23) was 680 square millimeters and the “number of tumor free animals out of those still living” value (755 adenocarcinoma [3]; Day 23) was 0/6. The “number of tumor free animals out of those still living” value (755 adenocarcinoma [3]; Day 29) was 0/0, the “number of tumor free animals out of those still living” value (755 adenocarcinoma [3]; Day 73) was 0/0 and the “effectiveness in the treatment of the 755 adenocarcinoma” value (755 adenocarcinoma [3]; mice, summary in words of Table 6) was “ineffective”.
